These results are taken from US8207216B2, “Benzofuran-3-yl(indol-3-yl) maleimides as potent GSK3 inhibitors” (The Board of Trustees of the University of Illinois, priority 2006, dated 2012).

For test [1], the target named is T1, recombinant human His6-GSK-3β (Homo sapiens, UniProt P49841).
T1 construct: His6; purchased EMD Biosciences
As to the kind of experiment: GSK-3β kinase assay, [γ32P] transfer to primed glycogen synthase peptide.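 On all read-outs here: phosphate incorporation quantified by liquid scintillation counting of the filters.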 Type of test: biochemical. The settings on record: for IC50: 10 μM ATP, 10 μM pGSM peptide, 30 minutes at 30° C., read-out: IC50 (nM), GSK-3β inhibition.

Test [2] has as its system MIAPaCa-2. As to the kind of experiment: Antiproliferation MTS assay, pancreatic cancer cells. Type of test: cell-based. The settings on record: Homo sapiens, MIA PaCa-2; 72 hrs, MTS. On the technique in general: Tetrazolium dyes change colour on reduction, which living cells bring about.
In test [3] the target is CDK-2/cyclinE (Homo sapiens, UniProt P24941). Description: CDK-2/CyclinE inhibition (Reaction Biology). The class given is biochemical. The settings on record: for IC50: tested at Reaction Biology, Inc.; for IC50 Ratio CDK-2/cyclinE GSK-3β: selectivity ratio.

T1 sequence (P49841 whole entry): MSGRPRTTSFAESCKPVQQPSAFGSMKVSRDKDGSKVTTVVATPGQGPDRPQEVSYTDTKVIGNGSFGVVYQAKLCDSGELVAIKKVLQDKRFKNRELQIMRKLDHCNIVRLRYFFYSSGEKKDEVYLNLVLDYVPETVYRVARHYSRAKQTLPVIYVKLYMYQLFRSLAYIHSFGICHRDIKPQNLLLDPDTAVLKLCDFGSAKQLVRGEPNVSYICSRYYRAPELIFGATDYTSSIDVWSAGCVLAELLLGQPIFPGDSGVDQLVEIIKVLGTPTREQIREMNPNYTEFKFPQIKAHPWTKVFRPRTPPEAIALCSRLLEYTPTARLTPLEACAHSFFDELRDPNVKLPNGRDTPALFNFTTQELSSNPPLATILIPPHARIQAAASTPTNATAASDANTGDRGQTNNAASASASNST

As for `Cn1cc(C2=C(c3coc4ccccc34)C(=O)NC2=O)c2cc(OCc3ccccc3)ccc21` [Compound 31, 3-Benzofuran-3-yl-4-(5-benzyloxy-1-methyl-1H-indol-3-yl)-pyrrole-2,5-dione], in test [1], the IC50 (as a rule, the concentration needed to halve the response being measured) is 500 ± 60 nM.

For `Cn1cc(C2=C(c3coc4cc(CO)ccc34)C(=O)NC2=O)c2cccc(CO)c21` [Compound 51, 3-(6-Hydroxymethyl-benzofuran-3-yl)-4-(7-hydroxymethyl-1-methyl-1H-indol-3-yl)-pyrrole-2,5-dione], the IC50 in test [1] is 5.1 ± 1.2 nM.

Regarding `Cn1cc(C2=C(c3coc4ccccc34)C(=O)NC2=O)c2cc(F)ccc21` [Compound 6, 3-Benzofuran-3-yl-4-(5-fluoro-1-methyl-1H-indol-3-yl)-pyrrole-2,5-dione], in test [1], the IC50 was 26 ± 6 nM.

Consider `Cn1cc(C2=C(c3coc4ccccc34)C(=O)NC2=O)c2cc(O)ccc21` [Compound 30, 3-Benzofuran-3-yl-4-(5-hydroxy-1-methyl-1H-indol-3-yl)-pyrrole-2,5-dione], for which the IC50 in test [1] stood at 690 ± 100 nM.

`Cn1cc(C2=C(c3coc4ccc(F)cc34)C(=O)NC2=O)c2cc(I)ccc21` [Compound 29, 3-(5-Fluoro-benzofuran-3-yl)-4-(5-iodo-1-methyl-1H-indol-3-yl)-pyrrole-2,5-dione]: in test [1], the IC50 amounted to 180 ± 11 nM.

Regarding `O=C1NC(=O)C(c2coc3ccccc23)=C1c1c[nH]c2ccc(OCc3ccccc3)cc12` [Compound 44, 3-Benzofuran-3-yl-4-(5-benzyloxy-1H-indol-3-yl)-pyrrole-2,5-dione], the IC50 was 21000 nM in test [2] and 1650 ± 200 nM in test [1].

In the case of `Cn1cc(C2=C(c3coc4ccccc34)C(=O)NC2=O)c2cccc(CCC(=O)O)c21` [Compound 86], in test [1], the IC50 worked out at 1.2 ± 0.2 nM.

Turning to `CCOC(=O)CCc1cccc2c(C3=C(c4coc5ccccc45)C(=O)NC3=O)cn(C)c12` [Compound 93], the IC50 in test [1] worked out at 10.2 ± 3.6 nM.

Turning to `COc1cccc2c(C3=C(c4cn(C)c5ccccc45)C(=O)NC3=O)coc12` [Compound 4, 3-(7-Methoxy-benzofuran-3-yl)-4-(1-methyl-1H-indol-3-yl)-pyrrole-2,5-dione], in test [1], the IC50 came out at 180 ± 15 nM.

As to `Cn1cc(C2=C(c3coc4ccccc34)C(=O)NC2=O)c2cccc(OCc3ccccc3)c21` [Compound 54, 3-Benzofuran-3-yl-4-(7-benzyloxy-1-methyl-1H-indol-3-yl)-pyrrole-2,5-dione], in test [1], the IC50 was found to be 220 ± 45 nM.

Regarding `Cn1cc(C2=C(c3coc4cc(CO)ccc34)C(=O)NC2=O)c2cc(F)ccc21` [Compound 7, 3-(5-Fluoro-1-methyl-1H-indol-3-yl)-4-(6-hydroxymethyl-benzofuran-3-yl)-pyrrole-2,5-dione], the IC50 in test [1] worked out at 0.35 ± 0.06 nM; in test [3], 237 nM.

For the molecule `Cn1cc(C2=C(c3coc4ccccc34)C(=O)NC2=O)c2cc(C3CC3)ccc21` [Compound 37, 3-Benzofuran-3-yl-4-(5-cyclopropyl-1-methyl-1H-indol-3-yl)-pyrrole-2,5-dione], the IC50 was 235 ± 15 nM in test [1] and 32000 nM in test [3].

Consider `O=C1NC(=O)C(c2coc3ccccc23)=C1c1c[nH]c2ccc(F)cc12` [Compound 5, 3-Benzofuran-3-yl-4-(5-fluoro-1H-indol-3-yl)-pyrrole-2,5-dione], for which the IC50 worked out at 21000 nM in test [2] and 360 ± 40 nM in test [1].

For `C=CCOc1ccc2c(C3=C(c4cn(C)c5ccc(Br)cc45)C(=O)NC3=O)coc2c1` [Compound 24, 3-(6-Allyloxy-benzofuran-3-yl)-4-(5-bromo-1-methyl-1H-indol-3-yl)-pyrrole-2,5-dione], in test [1], the IC50 came to 48.3 ± 7 nM.

As to `COc1cccc2c(C3=C(c4cn(C)c5c(Br)cc(Br)cc45)C(=O)NC3=O)coc12` [Compound 26, 3-(5,7-Dibromo-1-methyl-1H-indol-3-yl)-4-(7-methoxy-benzofuran-3-yl)-pyrrole-2,5-dione], the IC50 in test [1] worked out at 88.7 ± 5.6 nM.

On to `O=C1NC(=O)C(c2coc3ccc(F)cc23)=C1c1c[nH]c2ccccc12` [Compound 2, 3-(5-Fluoro-benzofuran-3-yl)-4-(1H-indol-3-yl)-pyrrole-2,5-dione], for which, in test [1], the IC50 is 670 ± 40 nM.

Consider `Cn1cc(C2=C(c3coc4cc(O)ccc34)C(=O)NC2=O)c2cc(F)ccc21` [Compound 9, 3-(5-Fluoro-1-methyl-1H-indol-3-yl)-4-(6-hydroxy-benzofuran-3-yl)-pyrrole-2,5-dione], for which the IC50 in test [1] came out at 3.5 ± 1.3 nM.

Turning to `COc1cc2c(C3=C(c4coc5ccccc45)C(=O)NC3=O)cn(C)c2cc1I` [Compound 43, 3-Benzofuran-3-yl-4-(6-iodo-5-methoxy-1-methyl-1H-indol-3-yl)-pyrrole-2,5-dione], in test [1], the IC50 amounted to 223 ± 22 nM.

Take `Cn1cc(C2=C(c3coc4ccc(Br)cc34)C(=O)NC2=O)c2ccccc21` [Compound 3, 3-(5-Bromo-benzofuran-3-yl)-4-(1-methyl-1H-indol-3-yl)-pyrrole-2,5-dione]: the IC50 in test [1] was 550 ± 20 nM.

`Cn1cc(C2=C(c3coc4ccccc34)C(=O)NC2=O)c2cccc(CO)c21` [Compound 82]: in test [3], the “IC50 Ratio CDK-2/cyclinE GSK-3β” value amounted to 27 and the midpoint of inhibition, the IC50, lay at 149 nM.

For the molecule `Cn1cc(C2=C(c3coc4ccccc34)C(=O)NC2=O)c2ccc(OCc3ccccc3)cc21` [Compound 47, 3-Benzofuran-3-yl-4-(6-benzyloxy-1-methyl-1H-indol-3-yl)-pyrrole-2,5-dione], in test [1], the IC50 was 900 ± 80 nM.

On to “3-(6-Chloro-5-methoxy-1-methyl-1H-indol-3-yl)-4-(6-methoxy-benzofuran-3-yl)-pyrrole-2,5-dione [Compound 14]”, for which, in test [1], the Ki (as a rule, a dissociation constant, usually derived from enzyme kinetics or from competition with a known ligand) was 580 nM and the IC50 stood at 870 ± 160 nM.

As to `Cn1cc(C2=C(c3coc4ccccc34)C(=O)NC2=O)c2cc(N3CCOCC3)ccc21` [Compound 39, 3-Benzofuran-3-yl-4-(1-methyl-5-morpholin-4-yl-1H-indol-3-yl)-pyrrole-2,5-dione], in test [1], the half-maximal inhibitory concentration (IC50) was 1300 ± 146 nM.

In the case of `Cn1cc(C2=C(c3coc4ccc(F)cc34)C(=O)NC2=O)c2cc(Cl)ccc21` [Compound 27, 3-(5-Chloro-1-methyl-1H-indol-3-yl)-4-(5-fluoro-benzofuran-3-yl)-pyrrole-2,5-dione], the IC50 in test [1] worked out at 34.5 ± 3.8 nM. Further, in test [3], the “IC50 Ratio CDK-2/cyclinE GSK-3β” value was 2.6 and inhibition was half-maximal at 1840 nM (IC50).

Take `O=C1NC(=O)C(c2cn(CCCO)c3ccc(OCc4ccccc4)cc23)=C1c1coc2ccccc12` [Compound 32, 3-Benzofuran-3-yl-4-[5-benzyloxy-1-(3-hydroxy-propyl)-1H-indol-3-yl]-pyrrole-2,5-dione]: in test [1], the IC50 came to 220 ± 30 nM.

For `COCc1cccc2c(C3=C(c4coc5cc(CO)ccc45)C(=O)NC3=O)cn(C)c12` [Compound 92], the IC50 in test [1] worked out at 0.73 ± 0.1 nM.

For the molecule `Cn1cc(C2=C(c3coc4ccccc34)C(=O)NC2=O)c2cccc(CO)c21` [Compound 50, 3-Benzofuran-3-yl-4-(7-hydroxymethyl-1-methyl-1H-indol-3-yl)-pyrrole-2,5-dione], the IC50 in test [1] was found to be 5.4 ± 0.7 nM.

Turning to `Cn1cc(C2=C(c3coc4cc(CO)ccc34)C(=O)NC2=O)c2cccc(CO)c21` [Compound 83], in test [3], the “IC50 Ratio CDK-2/cyclinE GSK-3β” value is on record as 5 and 27 nM corresponded to half-maximal inhibition (IC50).

In the case of `Cn1cc(C2=C(c3coc4ccccc34)C(=O)NC2=O)c2cccc(O)c21` [Compound 53, 3-Benzofuran-3-yl-4-(7-hydroxy-1-methyl-1H-indol-3-yl)-pyrrole-2,5-dione], the IC50 in test [1] was determined as 55 ± 8 nM.

With `Cn1cc(C2=C(c3coc4cc(CO)ccc34)C(=O)NC2=O)c2cc(C#N)ccc21` [Compound 34, 3-[4-(6-Hydroxymethyl-benzofuran-3-yl)-2,5-dioxo-2,5-dihydro-1H-pyrrol-3-yl]-1-methyl-1H-indole-5-carbonitrile], in test [1], the IC50 is 13.2 ± 3.2 nM.

As to `Cn1cc(C2=C(c3coc4ccc(F)cc34)C(=O)NC2=O)c2ccc(OCc3ccccc3)cc21` [Compound 48, 3-(6-Benzyloxy-1-methyl-1H-indol-3-yl)-4-(5-fluoro-benzofuran-3-yl)-pyrrole-2,5-dione], the IC50 in test [2] is 80000 nM; in test [1], 160 ± 35 nM.

Take `COc1cccc2c(C3=C(c4cn(C)c5cc(Br)c(F)cc45)C(=O)NC3=O)coc12` [Compound 11, 3-(6-Bromo-5-fluoro-1-methyl-1H-indol-3-yl)-4-(7-methoxy-benzofuran-3-yl)-pyrrole-2,5-dione]: the IC50 in test [1] stood at 59.7 ± 6.57 nM.

As to `COc1ccc2c(c1)c(C1=C(c3coc4ccccc34)C(=O)NC1=O)cn2C` [Compound 41, 3-Benzofuran-3-yl-4-(5-methoxy-1-methyl-1H-indol-3-yl)-pyrrole-2,5-dione], the IC50 in test [1] was determined as 125 ± 35 nM.

On to `COc1ccc(COc2ccc3c(C4=C(c5cn(C)c6ccc(Br)cc56)C(=O)NC4=O)coc3c2)cc1` [Compound 25, 3-(5-Bromo-1-methyl-1H-indol-3-yl)-4-[6-(4-methoxy-benzyloxy)-benzofuran-3-yl]-pyrrole-2,5-dione], for which the IC50 in test [1] stood at 335 ± 37 nM.

Consider `COc1cccc2c(C3=C(c4cn(C)c5cc(-c6ccc(Cl)cc6)c(F)cc45)C(=O)NC3=O)coc12` [Compound 18, 3-[6-(4-Chlorophenyl)-5-fluoro-1-methyl-1H-indol-3-yl]-4-(7-methoxy-benzofuran-3-yl)-pyrrole-2,5-dione], for which the IC50 in test [1] is 7160 ± 1200 nM.

Take `CN1C(=O)C(c2coc3cc(CO)ccc23)=C(c2cn(C)c3ccc(F)cc23)C1=O` [Compound 56, 3-(5-Fluoro-1-methyl-1H-indol-3-yl)-4-(6-hydroxymethyl-benzofuran-3-yl)-1-methyl-pyrrole-2,5-dione]: the IC50 in test [1] came out at 0.35 ± 0.06 nM.
